The values below come from patent publication US20070128217A1 (priority 2003, published 2007).

Test [1] relates to control sera (pooled serum of ten healthy LUMC hospital workers; commercial negative donor pooled serum from the Dutch bloodbank). In kind it is binding, human. On the set-up: Binding of Control serum LUMC to linear peptides / Binding of Control serum Blood-bank to linear peptides / Binding of Control serum LUMC to looped peptides / Binding of Control Serum Blood-Bank to Looped peptides / Binding of Control serum LUMC to linear peptides of the protein M of SARS-CoV Urbani / Binding of Control serum Blood-bank to linear peptides of the protein M of SARS-CoV Urbani / Binding of Control serum LUMC to looped peptides of the protein M of SARS-CoV Urbani / Binding of Control Serum Blood-Bank to Looped peptides of the protein M of SARS-CoV Urbani: unit not given here.

In test [2] the test system is rabbit serum obtained by immunizing a rabbit with the SARS-CoV strain Frankfurt 1. It is filed as binding. On the set-up: Binding of a rabbit serum to linear peptides / Binding of a rabbit serum to looped peptides / Rabbit serum linear peptides / Rabbit serum looped peptides / Binding of a rabbit serum to linear peptides of protein N of SARS-CoV Urbani (Rabbit serum linear peptides) / Binding of a rabbit serum to looped/cyclic peptides of protein N of SARS-CoV Urbani (Rabbit serum looped peptides): unit not given here.

The subject of test [3] is antibodies in sera from SARS patients (sera 1a, 1b, 2, 6, 37, 62, London, SARS-yellow, SARS-green). It is filed as binding, human. On the set-up: Binding of serum 6 to linear peptides of protein X1 of SARS-CoV Urbani / Binding of serum 37 to linear peptides of protein X1 of SARS-CoV Urbani / Binding of serum 6 to looped/cyclic peptide (PEPSCAN-ELISA) / Binding of serum 37 to looped/cyclic peptide (PEPSCAN-ELISA) / Binding of serum 37 to looped/cyclic peptides of protein X1 of SARS-CoV Urbani / Binding of serum 6 to linear peptides of protein X2 / Binding of serum 37 to linear peptides of protein X2 / Binding of serum 37 to looped/cyclic peptides of protein X2 of SARS-CoV Urbani / Binding of serum 6 to linear peptides of protein M of SARS-CoV Urbani / Binding of serum 37 to linear peptides of protein M of SARS-CoV Urbani / Binding of serum 6 to looped/cyclic peptides of protein M of SARS-CoV Urbani / Binding of serum 37 to looped/cyclic peptides of protein M of SARS-CoV Urbani / Binding of serum 6 to linear peptides of protein X3 of SARS-CoV Urbani / Binding of serum 37 to linear peptides of protein X3 of SARS-CoV Urbani / Binding of serum 37 to looped/cyclic peptides of protein X3 of SARS-CoV Urbani / Binding of serum 6 to linear peptides of protein X4 of SARS-CoV Urbani / Binding of serum 37 to linear peptides of protein X4 of SARS-CoV Urbani / Binding of serum 37 to looped/cyclic peptides of protein X4 of SARS-CoV Urbani / Binding of serum 6 to linear peptides of protein X5 of SARS-CoV Urbani / Binding of serum 37 to linear peptides of protein X5 of SARS-CoV Urbani / Binding of serum 37 to looped/cyclic peptides of protein X5 of SARS-CoV Urbani / Binding of serum 6 to linear peptides of protein N of SARS-CoV Urbani / Binding of serum 37 to linear peptides of protein N of SARS-CoV Urbani / Binding of serum 6 to linear peptide (PEPSCAN-ELISA) / Binding of serum 1a to looped/cyclic peptides of protein N of SARS-CoV Urbani / Binding of serum 1b to looped/cyclic peptides of protein N of SARS-CoV Urbani / Binding of serum 2 to looped/cyclic peptides of protein N of SARS-CoV Urbani / Binding of serum 6 to looped/cyclic peptides of protein N of SARS-CoV Urbani / Binding of serum 37 to looped/cyclic peptides of protein N of SARS-CoV Urbani / Binding of serum 62 to looped/cyclic peptides of protein N of SARS-CoV Urbani / Binding of serum London to looped/cyclic peptides of protein N of SARS-CoV Urbani / Binding of serum SARS-green to looped/cyclic peptides of protein N of SARS-CoV Urbani: unit not given here.

In the case of GMEAQFLYLYALIYF, in test [1], the “Binding of Control Serum Blood-Bank to Looped peptides” value is on record as 0.5, the “Binding of Control serum Blood-bank to linear peptides” value is reported as 0.4, the “Binding of Control serum LUMC to linear peptides” value is reported as 0.6 and the “Binding of Control serum LUMC to looped peptides” value was 0.8. Further, in test [2], the “Binding of a rabbit serum to linear peptides” value amounted to 0.1 and the “Binding of a rabbit serum to looped peptides” value is listed as 0.6. For the same sequence, in test [3], the “Binding of serum 1a to linear peptides of protein X1 of SARS-CoV Urbani” value stood at 0.8, the “Binding of serum 1a to looped/cyclic peptide (PEPSCAN-ELISA)” value turned out to be 0.6, the “Binding of serum 1b to linear peptides of protein X1 of SARS-CoV Urbani” value is 0.6 and the “Binding of serum 1b to looped/cyclic peptide (PEPSCAN-ELISA)” value stood at 0.4. For the same sequence, in test [3], the “Binding of serum 2 to linear peptides of protein X1 of SARS-CoV Urbani” value is given as 0.6, the “Binding of serum 2 to looped/cyclic peptide (PEPSCAN-ELISA)” value is recorded as 0.5, the “Binding of serum 6 to linear peptides of protein X1 of SARS-CoV Urbani” value is listed as 0.5 and the “Binding of serum 6 to looped/cyclic peptide (PEPSCAN-ELISA)” value stood at 0.3. Moreover, in test [3], the “Binding of serum 37 to linear peptides of protein X1 of SARS-CoV Urbani” value worked out at 0.5, the “Binding of serum 37 to looped/cyclic peptide (PEPSCAN-ELISA)” value stood at 0.4, the “Binding of serum 62 to linear peptides of protein X1 of SARS-CoV Urbani” value was 0.4 and the “Binding of serum 62 to looped/cyclic peptide (PEPSCAN-ELISA)” value is on record as 0.5. Moreover, in test [3], the “Binding of serum London to linear peptides of protein X1 of SARS-CoV Urbani” value stood at 0.2, the “Binding of serum London to looped/cyclic peptide (PEPSCAN-ELISA)” value stood at 0.2, the “Binding of serum SARS-green to linear peptides of protein X1 of SARS-CoV Urbani” value is 0.1 and the “Binding of serum SARS-green to looped/cyclic peptide (PEPSCAN-ELISA)” value is listed as 0.3. Also, in test [3], the “Binding of serum SARS-yellow to linear peptides of protein X1 of SARS-CoV Urbani” value is 0.3 and the “Binding of serum SARS-yellow to looped/cyclic peptide (PEPSCAN-ELISA)” value was found to be 0.4.

As for GTIVTRPLMESELVI, in test [1], the “Binding of Control Serum Blood-Bank to Looped peptides of the protein M of SARS-CoV Urbani” value is 0.8, the “Binding of Control serum Blood-bank to linear peptides of the protein M of SARS-CoV Urbani” value was determined as 0.7, the “Binding of Control serum LUMC to linear peptides of the protein M of SARS-CoV Urbani” value is 0.6 and the “Binding of Control serum LUMC to looped peptides of the protein M of SARS-CoV Urbani” value came out at 1.0. Besides, in test [2], the “Rabbit serum linear peptides” value was determined as 0.1 and the “Rabbit serum looped peptides” value is 0.5. Moreover, in test [3], the “Binding of serum 1a to linear peptides of protein M of SARS-CoV Urbani” value is 0.8, the “Binding of serum 1b to linear peptides of protein M of SARS-CoV Urbani” value turned out to be 0.7, the “Binding of serum 2 to linear peptides of protein M of SARS-CoV Urbani” value was 0.7 and the “Binding of serum 6 to linear peptides of protein M of SARS-CoV Urbani” value is reported as 0.5. In test [3], the “Binding of serum 37 to linear peptides of protein M of SARS-CoV Urbani” value was determined as 0.6, the “Binding of serum 62 to linear peptides of protein M of SARS-CoV Urbani” value amounted to 0.7, the “Binding of serum London to linear peptides of protein M of SARS-CoV Urbani” value came to 0.3 and the “Binding of serum SARS-green to linear peptides of protein M of SARS-CoV Urbani” value was 0.7. Besides, in test [3], the “Binding of serum SARS-yellow to linear peptides of protein M of SARS-CoV Urbani” value is 0.2; the “Recognition of the peptide by sera of SARS-CoV infected individuals, and form (linear, looped/cyclic) in which it is recognized” value is “recognized in looped/cyclic form”.

Consider GTRHTYQLRARSVSP, for which, in test [1], the “Binding of Control Serum Blood-Bank to Looped peptides” value is on record as 0.7, the “Binding of Control serum Blood-bank to linear peptides” value was found to be 0.8, the “Binding of Control serum LUMC to linear peptides” value is 0.6 and the “Binding of Control serum LUMC to looped peptides” value was 0.8. The “Recognition of the peptide by the rabbit serum” value in test [2] was “recognized”. In test [3], the “Binding of serum 1a to linear peptides of protein X4 of SARS-CoV Urbani” value is recorded as 0.7, the “Binding of serum 1a to looped/cyclic peptides of protein X4 of SARS-CoV Urbani” value is on record as 0.8, the “Binding of serum 1b to linear peptides of protein X4 of SARS-CoV Urbani” value is listed as 0.6 and the “Binding of serum 1b to looped/cyclic peptides of protein X4 of SARS-CoV Urbani” value is given as 0.5. In addition, in test [3], the “Binding of serum 2 to linear peptides of protein X4 of SARS-CoV Urbani” value is 0.8, the “Binding of serum 2 to looped/cyclic peptides of protein X4 of SARS-CoV Urbani” value is listed as 1.0, the “Binding of serum 6 to linear peptides of protein X4 of SARS-CoV Urbani” value is on record as 0.6 and the “Binding of serum 6 to looped/cyclic peptides of protein X4 of SARS-CoV Urbani” value stood at 0.6. In test [3], the “Binding of serum 37 to linear peptides of protein X4 of SARS-CoV Urbani” value is recorded as 0.8, the “Binding of serum 37 to looped/cyclic peptides of protein X4 of SARS-CoV Urbani” value is listed as 0.7, the “Binding of serum 62 to linear peptides of protein X4 of SARS-CoV Urbani” value is given as 0.8 and the “Binding of serum 62 to looped/cyclic peptides of protein X4 of SARS-CoV Urbani” value was 0.8. For the same sequence, in test [3], the “Binding of serum London to linear peptides of protein X4 of SARS-CoV Urbani” value stood at 0.8, the “Binding of serum London to looped/cyclic peptides of protein X4 of SARS-CoV Urbani” value is listed as 0.3, the “Binding of serum SARS-green to linear peptides of protein X4 of SARS-CoV Urbani” value was determined as 0.6 and the “Binding of serum SARS-green to looped/cyclic peptides of protein X4 of SARS-CoV Urbani” value was 0.5. Moreover, in test [3], the “Binding of serum SARS-yellow to linear peptides of protein X4 of SARS-CoV Urbani” value is 0.8 and the “Binding of serum SARS-yellow to looped/cyclic peptides of protein X4 of SARS-CoV Urbani” value is listed as 0.7.

For GVAFLAVFQSATKII, in test [1], the “Binding of Control Serum Blood-Bank to Looped peptides” value worked out at 0.7, the “Binding of Control serum Blood-bank to linear peptides” value came to 0.5, the “Binding of Control serum LUMC to linear peptides” value was determined as 0.7 and the “Binding of Control serum LUMC to looped peptides” value worked out at 0.7. In test [2], the “Binding of a rabbit serum to linear peptides” value stood at 0.9 and the “Binding of a rabbit serum to looped peptides” value came out at 0.6. Besides, in test [3], the “Binding of serum 1a to linear peptides of protein X1 of SARS-CoV Urbani” value came out at 0.7, the “Binding of serum 1a to looped/cyclic peptide (PEPSCAN-ELISA)” value is 0.6, the “Binding of serum 1b to linear peptides of protein X1 of SARS-CoV Urbani” value came out at 0.6 and the “Binding of serum 1b to looped/cyclic peptide (PEPSCAN-ELISA)” value is 0.4. Moreover, in test [3], the “Binding of serum 2 to linear peptides of protein X1 of SARS-CoV Urbani” value turned out to be 0.8, the “Binding of serum 2 to looped/cyclic peptide (PEPSCAN-ELISA)” value is given as 0.6, the “Binding of serum 6 to linear peptides of protein X1 of SARS-CoV Urbani” value amounted to 0.7 and the “Binding of serum 6 to looped/cyclic peptide (PEPSCAN-ELISA)” value came out at 0.5. For the same sequence, in test [3], the “Binding of serum 37 to linear peptides of protein X1 of SARS-CoV Urbani” value came to 0.6, the “Binding of serum 37 to looped/cyclic peptide (PEPSCAN-ELISA)” value was found to be 0.6, the “Binding of serum 62 to linear peptides of protein X1 of SARS-CoV Urbani” value was found to be 0.6 and the “Binding of serum 62 to looped/cyclic peptide (PEPSCAN-ELISA)” value came out at 0.6. Further, in test [3], the “Binding of serum London to linear peptides of protein X1 of SARS-CoV Urbani” value is 0.2, the “Binding of serum London to looped/cyclic peptide (PEPSCAN-ELISA)” value came to 0.4, the “Binding of serum SARS-green to linear peptides of protein X1 of SARS-CoV Urbani” value amounted to 0.3 and the “Binding of serum SARS-green to looped/cyclic peptide (PEPSCAN-ELISA)” value is 0.3. For the same sequence, in test [3], the “Binding of serum SARS-yellow to linear peptides of protein X1 of SARS-CoV Urbani” value is 0.2 and the “Binding of serum SARS-yellow to looped/cyclic peptide (PEPSCAN-ELISA)” value is recorded as 0.3.
